According to patent publication US20260027067A1, “TRIENTINE LIQUID DOSAGE FORMS” (BIOPHORE INDIA PHARMACEUTICALS PVT. LTD., priority 2022, published 2026):
Where a name gives a salt, the structure may show the parent alone.

How the values were obtained:
[1] = crystalline powder; cited from earlier work
[2] = Selection of sweeteners and flavoring agents (formulation trials); conditions: used as sweetener in trientine tetrahydrochloride oral solution

Row | Structure (SMILES) | hygroscopicity [1] | compatibility of the sweetener in the formulation [2]
1 | NCCNCCNCCN [Trientine dihydrochloride salt, Trientine dihydrochloride] | hygroscopic | –
2 | Cl.Cl.Cl.Cl.NCCNCCNCCN [Trientine tetrahydrochloride salt, Trientine tetrahydrochloride] | not hygroscopic | –
3 | O=C1NS(=O)(=O)c2ccccc21.[Na] [saccharin sodium] | – | incompatibility in the form of milky white curdling
